The text below walks through data of US8871751B2, “Compositions and methods relating to nuclear hormone and steroid hormone receptors including inhibitors of estrogen receptor alpha-mediated gene expression and inhibition of breast cancer” (The Board of Trustees of the University of Illinois, priority 2008, dated 2014).

Assay [1] concerns the target T1, human PR-B binding to flPRE (Homo sapiens, UniProt P06401).
T1 construct: FLAG; made in house
T1 sequence (P06401 1-933): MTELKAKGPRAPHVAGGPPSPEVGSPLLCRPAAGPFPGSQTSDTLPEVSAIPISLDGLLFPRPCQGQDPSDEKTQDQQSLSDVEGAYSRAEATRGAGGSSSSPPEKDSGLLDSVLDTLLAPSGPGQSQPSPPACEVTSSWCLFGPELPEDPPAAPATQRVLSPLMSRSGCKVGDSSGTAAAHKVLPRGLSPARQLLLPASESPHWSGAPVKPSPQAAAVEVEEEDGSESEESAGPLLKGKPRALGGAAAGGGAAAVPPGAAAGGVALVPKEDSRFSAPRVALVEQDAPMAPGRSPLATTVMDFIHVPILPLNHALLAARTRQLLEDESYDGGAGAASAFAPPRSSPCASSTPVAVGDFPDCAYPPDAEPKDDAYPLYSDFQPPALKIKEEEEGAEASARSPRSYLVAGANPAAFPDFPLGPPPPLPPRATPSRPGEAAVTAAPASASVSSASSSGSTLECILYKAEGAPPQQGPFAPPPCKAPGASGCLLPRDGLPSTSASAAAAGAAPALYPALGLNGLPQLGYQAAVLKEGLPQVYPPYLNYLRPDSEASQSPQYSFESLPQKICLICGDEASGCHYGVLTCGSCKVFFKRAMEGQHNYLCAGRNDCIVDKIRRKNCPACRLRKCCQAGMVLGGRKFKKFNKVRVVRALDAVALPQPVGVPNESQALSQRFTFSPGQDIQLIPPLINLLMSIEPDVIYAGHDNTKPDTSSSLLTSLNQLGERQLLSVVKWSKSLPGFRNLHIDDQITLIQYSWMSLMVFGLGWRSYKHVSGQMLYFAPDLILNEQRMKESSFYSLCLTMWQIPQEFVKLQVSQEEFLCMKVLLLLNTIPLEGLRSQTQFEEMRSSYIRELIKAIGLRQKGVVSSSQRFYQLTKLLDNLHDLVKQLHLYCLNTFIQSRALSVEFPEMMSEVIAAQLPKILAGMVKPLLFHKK
The assay is described as follows: FAMA: inhibition of PR binding to flcPRE. As to conditions: binding to HRE, 5 concentrations 0.5-10 μM, sequential method. As for the experimental part:
Dose response curves for selected compounds were carried out as described for the HTS screen except that each well contained the indicated concentration of test compound. PR assays were carried out in the same buffer used for ERα assays and contained 1 nM flcPRE and 11 nM PR-B and 100 nM progesterone. The buffer used for AR was similar but also contained 5 μM ZnCl, 5 mM NaF, 0.6 μM CHAPS and 100 nM dihydrotestosterone. AR assays contained 1 nM flcARE and 50 nM full-length wild-type AR.
Specificity was evaluated in dose-response studies by quantitative FAMA using purified full-length human PR binding to a fluorescein-labeled progesterone/glucocorticoid response element (flPRE) and full-length human androgen receptor (AR) binding to a fluorescein-labeled androgen response element (flARE).

In another assay the target is T2, ERα (Homo sapiens, UniProt P03372).
T2 sequence (P03372 1-595): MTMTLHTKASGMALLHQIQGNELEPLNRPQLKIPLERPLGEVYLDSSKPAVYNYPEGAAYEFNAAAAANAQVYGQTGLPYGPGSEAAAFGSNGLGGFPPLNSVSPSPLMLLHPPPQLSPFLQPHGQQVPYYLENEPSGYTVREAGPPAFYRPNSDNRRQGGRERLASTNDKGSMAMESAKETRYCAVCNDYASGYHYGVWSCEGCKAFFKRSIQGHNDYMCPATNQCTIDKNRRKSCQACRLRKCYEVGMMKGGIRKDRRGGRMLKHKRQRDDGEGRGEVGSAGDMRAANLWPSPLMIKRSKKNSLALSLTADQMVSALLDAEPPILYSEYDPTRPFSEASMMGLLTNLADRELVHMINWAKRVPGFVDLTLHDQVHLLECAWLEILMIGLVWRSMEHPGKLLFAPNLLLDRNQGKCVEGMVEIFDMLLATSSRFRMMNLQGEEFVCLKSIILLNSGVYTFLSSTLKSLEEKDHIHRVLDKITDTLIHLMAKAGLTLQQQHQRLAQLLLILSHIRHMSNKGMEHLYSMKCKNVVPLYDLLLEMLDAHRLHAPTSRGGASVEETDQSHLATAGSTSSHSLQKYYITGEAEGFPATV
The assay can be described thus: (ERE)3-luciferase reporter gene assay in T47D-KBluc cells. In kind it is cell-based. More on the design: Using a stably transfected breast cancer cell line that expresses endogenous ERα; endogenous in cells; host or cells: T47D-KBluc. As for the experimental part: The T47D-KBluc cells stably express an (ERE)3-luciferase reporter gene (38). […] Four days before E2 induction, the cells were switched to the above medium, with 10% 2× charcoal-dextran-treated calf serum instead of FBS. 200,000 cells/well were transferred to each well of a 24-well plate. After 24 h the indicated concentrations of the test compounds were added in DMSO and E2 was added to 20 pM. After 24 h cells were washed once in PBS, and 150 μl 1× Passive Lysis Buffer (Promega, Madison Wis.) was used to lyse the cells. Luciferase activity was determined using firefly luciferase reagents from Promega (Madison, Wis.).
Reporter Gene Assays. […] AR was assayed in stably transfected HeLa cells and GR was assayed in stably transfected T47D cells maintained as described above. Four days before each experiment the cells were switched to medium containing CD-treated serum as described above. The HeLaAR cells were plated at 100,000 cells/well and the T47D/A1-2 and T47D-KBluc cells were plated at 200,000 cells/well in 1 ml of their respective media in 24-well plates. After 24 hours the indicated concentrations of E2, dihydrotestosterone (DHT) or dexamethasone (Dex) and DMSO vehicle, with or without TPSF, were added to each well. After 24 hours, the cells were washed once in phosphate buffered saline and lysed using 100 μl of 1× Passive Lysis Buffer (Promega, Madison Wis.). Luciferase activity was determined using BrightGlo firefly luciferase reagent from Promega (Madison, Wis.).
For orientation: In a reporter assay the amount or activity of a reporter protein is the signal.

The mark [2] stands for this setting: T47D-KBluc cells, 20 pM E2, 24 h, read-out: IC50 for inhibition of E2 dependent ERα transactivation, (ERE)3-luciferase.

pIC50: −log10 of the molar value. Where two headings read alike, the source gives them in different places. Bounds are passed on as bounds.

One may read the pIC50 as −log10 of the IC50, conventionally taken in molar units. Turning to `CN1CCC(C#N)c2ccccc21` (centres unmarked) [Compound 1529], the negative-log IC50 (pIC50) is 5.12 in assay [1] and 4.66 on ERα (setting [2]).
For the molecule `CCCSc1nc2c([nH]1)c(=O)n(C)c(=S)n2C` [Compound 95869, 1,3-Dimethyl-8-propylsulfanyl-2-thioxo-1,2,3,7-tetrahydro-purin-6-one], the “ER at 10 μM” value on ERα came to 20.
Regarding `Cn1c(=O)c2[nH]c(SC3CCCCC3)nc2n(C)c1=S` [Compound 95899, 8-Cyclohexylsulfanyl-1,3-dimethyl-2-thioxo-1,2,3,7-tetrahydro-purin-6-one], the “ER at 10 μM” value on ERα came to 36.
For the molecule `Cn1c(=O)c2nc(CSCc3ccccc3)[nH]c2n(C)c1=O` [Compound 95910, 8-Benzylsulfanylmethyl-1,3-dimethyl-3,7-dihydro-purine-2,6-dione], the pIC50 in assay [1] is 5.02.
In the case of `Cn1c(=O)c2[nH]c(C3CC4CCC3C4)nc2n(C)c1=O` (centres unmarked) [Compound 101807, 8-Bicyclo[2.2.1]hept-2-yl-1,3-dimethyl-3,7-dihydro-purine-2,6-dione], on ERα, the “ER at 10 μM” value was 0.
As to `CN(C)CCCn1c2c3ccccc3ccc2c2oc(=O)c3ccccc3c21` [Compound 638432], the negative logarithm of the IC50 (pIC50) in assay [1] was 5.13; at ERα (setting [2]) it was 6.10.
Consider `Cn1c(=S)c2[nH]c(SCCCC(=O)c3ccc(F)cc3)nc2n(C)c1=O` [TPSF, Butyrophenone, p-fluoro-4-(1,2,3,6,-tetrahydro-1,3-dimethyl-2-oxo-6-thionopurin-8-ylthio)], for which, on ERα, the “concentrations necessary to inhibit AR and GR relative to average IC50 for the two ER-regulated genes (higher)” value was 20-70 fold; the “potency as ERα inhibitor relative to TPBM (more potent)” value is recorded as over 15 fold. In addition, at ERα (PI-9 in MCF-7 and (ERE)3-Luc in T47D, read-out: average IC50 for inhibition of the two ER-regulated genes), the negative-log IC50 (pIC50) was 6.35.
